Active and inactive are the calls of the source.
Columns and labels:
[1] = molecular target: Intestinal-type alkaline phosphatase (Homo sapiens, UniProt P09923); test: human intestinal alkaline phosphatase activators, dose response, biochemical, luminescence, uHTS hits (AID 463120); type: functional
[2] = molecular target: T1, Voltage-gated N-type calcium channel alpha-1B subunit/Amyloid beta A4 precursor protein-binding family A member 1 (Homo sapiens, UniProt Q00975+Q02410); type: protein assay
[3] = molecular target: T2, Long-chain-fatty-acid--AMP ligase FadD28 (Mycobacterium tuberculosis, UniProt P9WQ59); test: Fluorescence polarization aasay to screen for inhibitors that compete for the binding of FadD28 to a bisubstrate Measured in Biochemical System Using Plate Reader - 2147-01_Inhibitor_Dose_CherryPick_Activity.; type: functional, Mycobacterium tuberculosis H37Rv
T2 sequence (P9WQ59 whole entry): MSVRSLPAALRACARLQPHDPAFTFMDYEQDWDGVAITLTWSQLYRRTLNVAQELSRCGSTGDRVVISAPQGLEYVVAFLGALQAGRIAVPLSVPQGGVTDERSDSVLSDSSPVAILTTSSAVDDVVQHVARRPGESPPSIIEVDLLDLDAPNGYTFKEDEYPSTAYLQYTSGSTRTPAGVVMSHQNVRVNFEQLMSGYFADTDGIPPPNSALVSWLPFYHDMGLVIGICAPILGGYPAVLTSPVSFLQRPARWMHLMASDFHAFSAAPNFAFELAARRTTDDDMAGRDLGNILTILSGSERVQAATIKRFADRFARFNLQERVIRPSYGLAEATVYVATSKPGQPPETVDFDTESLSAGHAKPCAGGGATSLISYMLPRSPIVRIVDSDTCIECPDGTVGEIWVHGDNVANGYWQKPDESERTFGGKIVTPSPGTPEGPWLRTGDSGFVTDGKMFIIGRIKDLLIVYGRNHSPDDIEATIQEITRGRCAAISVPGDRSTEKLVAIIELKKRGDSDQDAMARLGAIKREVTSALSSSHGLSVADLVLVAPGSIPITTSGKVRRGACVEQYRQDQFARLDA

[4] = CCR5-tropic HIV-1 fusion blockers – cell-based, CCR5-tropic Env, dose response (AID 2279); type: functional
[5] = molecular target: T1, Voltage-gated N-type calcium channel alpha-1B subunit/Amyloid beta A4 precursor protein-binding family A member 1; type: protein assay; remark: listed apart in the source
[6] = molecular target: Induced myeloid leukemia cell differentiation protein Mcl-1 (Homo sapiens, UniProt Q07820); type: functional
[7] = molecular target: T3, E3 ubiquitin-protein ligase XIAP (Homo sapiens, UniProt P98170); test: small molecules displacing peptide from XIAP – biochemical, IAP family, fluorescence polarization (AID 1018); type: functional
[8] = molecular target: T3, E3 ubiquitin-protein ligase XIAP; test: Counter Screen using XIAP-Bir3 for Chemical Antagonists of Bir1/2 domains of IAP-family anti-apoptotic proteins. [Related pubchem assays (depositor defined):AID1018, AID1449, AID1514, AID1638, AID1749, AID1750, AID488957, AID488963]
[9] = molecular target: Peroxisome proliferator-activated receptor gamma/Nuclear receptor coactivator 1 (Homo sapiens, UniProt P37231); test: (§1) TR-FRET dose response biochemical High Throughput Screening assay for agonists of the steroid receptor coactivator 1 (SRC-1) recruitment by the peroxisome proliferator-activated receptor gamma (PPAR gamma): non-selective agonists. [Related pubchem assays (depositor defined):AID1300, AID1808, AID504735, AID631]; type: protein assay
[10] = molecular target: Peroxisome proliferator-activated receptor gamma/Nuclear receptor coactivator 3 (Homo sapiens, UniProt P37231); test: as §1, with “3 (SRC-3)” for “1 (SRC-1)”, “assays: 1301 (Confirmation screen.), 1048 (Primary screen.)]” for “assays (depositor defined):AID1300, AID1808, AID504735, AID631]”; type: functional
[11] = molecular target: Peroxisome proliferator-activated receptor gamma/Nuclear receptor coactivator 2 (Homo sapiens, UniProt P37231); test: TR-FRET dose response biochemical High Throughput Screening assay for agonists of the steroid receptor coactivator 2 (SRC-2) recruitment by the peroxisome proliferator-activated receptor gamma (PPAR gamma): non-selective agonists. [Related pubchem assays: 1297, 1032 ]; type: functional
Vero = test: viability of Vero cells under compound – cytotoxicity control for flavivirus capping enzyme inhibitors (AID 588742); type: functional; conditions: Chlorocebus sabaeus
[12] = molecular target: ATP-dependent molecular chaperone HSP82 (Candida albicans (strain WO-1) (Yeast), UniProt C4YTQ8); test: steroid-induced GRE reporter decrease in yeast – S. cerevisiae, luminescence, Hsp90 inhibitor project, dose response (AID 2400); type: functional, cell-based;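 also: beta-galactosidase luminescence from glucocorticoid response element reporter as proxy for Hsp90 function; inhibitor potency where signal loss means Hsp90 inhibition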
Genome polyprotein = Genome polyprotein (dengue virus type 2, UniProt P29990); test: flavivirus cap methylation enzyme inhibition – biochemical, confirmation dose response, primary screen (AID 588689); type: functional
[13] = fluconazole-exposed Candida albicans growth modulators – fluorescence, retest, confirmation (AID 2467); type: functional, cell-based
Streptococcus = test: GAS UMAA2166 growth inhibition – luminescence, BacTiterGlo, counter-screen for streptokinase expression inhibitor project, dose response (AID 1915); type: functional, organism-based;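 also: potency for reduction of bacterial viability or growth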
[14] = NIH-3T3 fibroblast cytotoxicity, dose response, cytotoxicity control, cell-based, fluorescence, Alamar Blue, secondary assay (AID 2327); type: functional;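 also: NIH-3T3 mouse fibroblasts cultured with fluconazole at 8 µg/mL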
[15] = molecular target: T4, Probable nicotinate-nucleotide adenylyltransferase (Staphylococcus aureus (strain N315), UniProt P65502); type: functional, Staphylococcus aureus subsp. aureus N315;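 as to IC50 Mean: confirmatory dose-response retesting of NadD inhibitor hits first found in an ultra-high-throughput screen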
Streptokinase A = molecular target: T5, Streptokinase A (Streptococcus pyogenes serotype M1, UniProt P10520); test: viability-normalized secreted streptokinase activity reduction – plasminogen activation absorbance, OD405, dose response (AID 1914); type: functional, Streptococcus pyogenes M1 GAS;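 also: secreted streptokinase activity via plasminogen activation per viability signal from cell pellet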
T5 sequence (P10520 whole entry): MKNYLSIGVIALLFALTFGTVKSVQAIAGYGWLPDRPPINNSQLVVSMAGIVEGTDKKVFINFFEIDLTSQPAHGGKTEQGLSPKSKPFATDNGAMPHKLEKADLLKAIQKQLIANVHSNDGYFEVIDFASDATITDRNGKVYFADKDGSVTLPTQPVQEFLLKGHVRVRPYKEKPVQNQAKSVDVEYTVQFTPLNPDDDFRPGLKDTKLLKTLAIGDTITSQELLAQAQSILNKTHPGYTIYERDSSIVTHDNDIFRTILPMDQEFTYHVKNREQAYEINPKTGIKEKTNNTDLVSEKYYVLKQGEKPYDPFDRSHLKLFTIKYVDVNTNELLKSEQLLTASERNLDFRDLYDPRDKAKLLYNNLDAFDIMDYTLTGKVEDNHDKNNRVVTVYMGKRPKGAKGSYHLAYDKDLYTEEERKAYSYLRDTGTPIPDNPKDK

[16] = molecular target: T4, Probable nicotinate-nucleotide adenylyltransferase; type: functional, Staphylococcus aureus subsp. aureus N315; conditions: read-out: IC50_Mean
Aminopeptidase N = molecular target: T6, Aminopeptidase N (Plasmodium falciparum FcB1/Columbia, UniProt O96935); test: malaria alanyl aminopeptidase activity blockers – biochemical, fluorogenic H-Leu-NHMec substrate, 1536-well (AID 1445); design: species or system Plasmodium falciparum 3D7, 3D7
T6 sequence (O96935 whole entry): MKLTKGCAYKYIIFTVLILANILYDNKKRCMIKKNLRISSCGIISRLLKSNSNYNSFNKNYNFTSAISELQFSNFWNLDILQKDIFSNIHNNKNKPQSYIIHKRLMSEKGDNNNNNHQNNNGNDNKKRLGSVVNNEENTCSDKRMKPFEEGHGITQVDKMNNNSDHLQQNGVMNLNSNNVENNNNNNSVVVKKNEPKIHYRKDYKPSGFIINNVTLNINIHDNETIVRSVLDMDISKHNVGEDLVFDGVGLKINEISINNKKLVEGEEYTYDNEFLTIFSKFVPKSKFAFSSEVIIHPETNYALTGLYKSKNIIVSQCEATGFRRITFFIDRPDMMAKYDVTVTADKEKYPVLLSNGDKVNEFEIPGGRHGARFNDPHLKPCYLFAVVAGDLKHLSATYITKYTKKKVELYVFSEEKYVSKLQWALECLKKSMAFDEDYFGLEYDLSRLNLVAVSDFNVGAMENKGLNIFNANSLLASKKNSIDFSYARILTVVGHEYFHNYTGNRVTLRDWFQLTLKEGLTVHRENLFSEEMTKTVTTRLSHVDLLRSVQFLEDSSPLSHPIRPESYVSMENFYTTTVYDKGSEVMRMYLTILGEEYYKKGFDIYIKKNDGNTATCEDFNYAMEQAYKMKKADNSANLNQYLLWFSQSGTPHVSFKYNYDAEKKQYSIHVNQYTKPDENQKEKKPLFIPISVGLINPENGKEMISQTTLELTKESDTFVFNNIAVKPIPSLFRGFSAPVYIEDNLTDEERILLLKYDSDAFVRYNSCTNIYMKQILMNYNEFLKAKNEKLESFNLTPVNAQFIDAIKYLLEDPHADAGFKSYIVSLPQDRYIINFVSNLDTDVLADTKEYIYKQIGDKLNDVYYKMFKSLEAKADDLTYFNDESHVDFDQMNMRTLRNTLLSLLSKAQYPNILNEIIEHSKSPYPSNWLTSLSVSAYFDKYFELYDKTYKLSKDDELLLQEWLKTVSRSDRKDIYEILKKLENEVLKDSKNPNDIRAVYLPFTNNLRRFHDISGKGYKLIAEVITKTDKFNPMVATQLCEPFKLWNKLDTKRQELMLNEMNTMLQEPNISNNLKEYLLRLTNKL

Escherichia coli = test: microbe, parasite or virus in culture
[17] = tested on: Streptococcus sp. 'group A'; test: Streptococcus pyogenes SK(-)GAS viability under kanamycin – luminescence, BacTiterGlo, confirmation, counter-screen for streptokinase expression inhibitor project, dose response (AID 1900); type: functional, organism-based
[18] = molecular target: T7, Serine/threonine-protein phosphatase (Candida dubliniensis (strain CD36 / CBS 7987 / NCPF 3949 / NRRLY-17841) (Yeast), UniProt B9W6M3); test: blockers of CaCl2-induced CDRE-lacZ signaling – S. cerevisiae, luminescence, secondary, dose response (AID 2388); type: functional, cell-based;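 also: yeast reporter cells carrying a calcineurin-responsive lacZ construct stimulated with calcium chloride; luminescent beta-galactosidase reporter signal in whole cells rather than isolated phosphatase activity; potency for inhibition where a drop in reporter signal means calcineurin blockade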
T7 sequence (B9W6M3 whole entry): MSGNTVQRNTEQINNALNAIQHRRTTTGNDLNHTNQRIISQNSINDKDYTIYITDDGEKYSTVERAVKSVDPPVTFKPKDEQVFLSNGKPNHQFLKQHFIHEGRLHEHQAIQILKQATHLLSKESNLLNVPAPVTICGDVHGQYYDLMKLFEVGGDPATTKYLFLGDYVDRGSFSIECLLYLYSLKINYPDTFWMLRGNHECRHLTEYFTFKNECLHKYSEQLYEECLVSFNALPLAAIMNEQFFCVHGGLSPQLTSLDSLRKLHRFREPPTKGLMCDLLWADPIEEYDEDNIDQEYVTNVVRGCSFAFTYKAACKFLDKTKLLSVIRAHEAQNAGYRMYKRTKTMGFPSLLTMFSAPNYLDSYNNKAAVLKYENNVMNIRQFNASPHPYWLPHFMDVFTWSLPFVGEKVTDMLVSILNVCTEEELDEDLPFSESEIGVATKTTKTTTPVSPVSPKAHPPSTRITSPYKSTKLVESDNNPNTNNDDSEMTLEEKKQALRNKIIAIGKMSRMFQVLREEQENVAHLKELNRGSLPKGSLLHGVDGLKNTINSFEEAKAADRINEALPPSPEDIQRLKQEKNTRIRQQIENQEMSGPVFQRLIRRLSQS

[19] = molecular target: T1, Voltage-gated N-type calcium channel alpha-1B subunit/Amyloid beta A4 precursor protein-binding family A member 1; test: disruptors of Mint-PDZ/N-type channel peptide interaction – biochemical, HTRF, SAR follow-up (AID 2489); type: functional

T1 sequence (Q00975 whole entry): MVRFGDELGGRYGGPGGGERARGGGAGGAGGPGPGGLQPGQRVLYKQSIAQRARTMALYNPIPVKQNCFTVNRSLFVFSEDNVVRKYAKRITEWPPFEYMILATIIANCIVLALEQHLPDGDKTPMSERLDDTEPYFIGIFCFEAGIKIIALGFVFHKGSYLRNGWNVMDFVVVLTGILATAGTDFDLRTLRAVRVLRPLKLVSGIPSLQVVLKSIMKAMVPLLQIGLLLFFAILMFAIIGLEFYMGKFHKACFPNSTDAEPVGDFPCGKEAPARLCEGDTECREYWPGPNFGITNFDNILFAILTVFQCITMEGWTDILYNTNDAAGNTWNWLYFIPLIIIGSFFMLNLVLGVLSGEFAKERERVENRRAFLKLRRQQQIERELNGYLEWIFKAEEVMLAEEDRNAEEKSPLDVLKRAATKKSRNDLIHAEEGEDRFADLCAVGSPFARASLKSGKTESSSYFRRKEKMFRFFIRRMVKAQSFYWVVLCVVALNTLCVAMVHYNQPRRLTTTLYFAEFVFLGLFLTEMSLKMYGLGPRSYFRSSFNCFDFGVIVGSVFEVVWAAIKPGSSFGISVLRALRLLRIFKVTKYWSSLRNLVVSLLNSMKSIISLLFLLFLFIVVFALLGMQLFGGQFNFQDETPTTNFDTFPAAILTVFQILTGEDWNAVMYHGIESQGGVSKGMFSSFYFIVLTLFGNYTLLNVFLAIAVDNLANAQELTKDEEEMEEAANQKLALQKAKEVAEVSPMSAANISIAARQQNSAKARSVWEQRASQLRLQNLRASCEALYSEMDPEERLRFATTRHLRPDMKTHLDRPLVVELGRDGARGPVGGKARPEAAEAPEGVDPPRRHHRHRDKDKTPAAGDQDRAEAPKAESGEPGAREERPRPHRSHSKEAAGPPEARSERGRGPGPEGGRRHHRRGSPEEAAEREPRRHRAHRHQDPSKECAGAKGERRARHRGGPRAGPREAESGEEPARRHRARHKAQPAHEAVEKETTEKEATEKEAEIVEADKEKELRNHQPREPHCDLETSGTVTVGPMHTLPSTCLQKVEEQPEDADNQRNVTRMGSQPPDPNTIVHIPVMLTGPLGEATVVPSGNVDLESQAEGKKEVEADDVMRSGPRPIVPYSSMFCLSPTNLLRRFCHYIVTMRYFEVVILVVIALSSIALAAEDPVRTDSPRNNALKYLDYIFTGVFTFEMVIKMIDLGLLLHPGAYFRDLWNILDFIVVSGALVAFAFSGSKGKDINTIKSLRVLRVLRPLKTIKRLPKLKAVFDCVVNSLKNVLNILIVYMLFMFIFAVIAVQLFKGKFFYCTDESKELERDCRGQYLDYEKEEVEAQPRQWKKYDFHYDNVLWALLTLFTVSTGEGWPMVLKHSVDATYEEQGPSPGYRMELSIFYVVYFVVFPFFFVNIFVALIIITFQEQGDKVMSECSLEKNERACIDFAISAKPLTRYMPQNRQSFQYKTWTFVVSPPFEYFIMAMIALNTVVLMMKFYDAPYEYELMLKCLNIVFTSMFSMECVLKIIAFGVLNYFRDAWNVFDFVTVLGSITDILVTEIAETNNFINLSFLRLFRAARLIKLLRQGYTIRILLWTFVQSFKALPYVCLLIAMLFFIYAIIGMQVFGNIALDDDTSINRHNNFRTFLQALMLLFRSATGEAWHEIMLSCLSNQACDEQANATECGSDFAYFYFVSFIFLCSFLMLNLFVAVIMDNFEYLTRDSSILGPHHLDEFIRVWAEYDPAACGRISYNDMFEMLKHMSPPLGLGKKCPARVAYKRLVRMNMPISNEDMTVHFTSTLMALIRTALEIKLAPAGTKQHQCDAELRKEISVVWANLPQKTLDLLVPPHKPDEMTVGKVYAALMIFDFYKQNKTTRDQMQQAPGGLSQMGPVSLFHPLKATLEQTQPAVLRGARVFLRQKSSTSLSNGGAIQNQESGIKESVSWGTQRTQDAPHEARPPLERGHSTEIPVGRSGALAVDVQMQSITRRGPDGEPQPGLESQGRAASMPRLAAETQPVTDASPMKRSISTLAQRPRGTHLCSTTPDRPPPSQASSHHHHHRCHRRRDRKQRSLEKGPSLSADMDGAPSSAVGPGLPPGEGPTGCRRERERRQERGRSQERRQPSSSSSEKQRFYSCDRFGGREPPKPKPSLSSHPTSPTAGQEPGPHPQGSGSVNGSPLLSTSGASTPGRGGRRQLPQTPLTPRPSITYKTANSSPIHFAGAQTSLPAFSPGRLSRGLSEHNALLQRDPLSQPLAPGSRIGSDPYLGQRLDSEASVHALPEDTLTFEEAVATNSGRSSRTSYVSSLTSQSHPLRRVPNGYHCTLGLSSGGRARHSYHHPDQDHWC
T1 sequence (Q02410 whole entry): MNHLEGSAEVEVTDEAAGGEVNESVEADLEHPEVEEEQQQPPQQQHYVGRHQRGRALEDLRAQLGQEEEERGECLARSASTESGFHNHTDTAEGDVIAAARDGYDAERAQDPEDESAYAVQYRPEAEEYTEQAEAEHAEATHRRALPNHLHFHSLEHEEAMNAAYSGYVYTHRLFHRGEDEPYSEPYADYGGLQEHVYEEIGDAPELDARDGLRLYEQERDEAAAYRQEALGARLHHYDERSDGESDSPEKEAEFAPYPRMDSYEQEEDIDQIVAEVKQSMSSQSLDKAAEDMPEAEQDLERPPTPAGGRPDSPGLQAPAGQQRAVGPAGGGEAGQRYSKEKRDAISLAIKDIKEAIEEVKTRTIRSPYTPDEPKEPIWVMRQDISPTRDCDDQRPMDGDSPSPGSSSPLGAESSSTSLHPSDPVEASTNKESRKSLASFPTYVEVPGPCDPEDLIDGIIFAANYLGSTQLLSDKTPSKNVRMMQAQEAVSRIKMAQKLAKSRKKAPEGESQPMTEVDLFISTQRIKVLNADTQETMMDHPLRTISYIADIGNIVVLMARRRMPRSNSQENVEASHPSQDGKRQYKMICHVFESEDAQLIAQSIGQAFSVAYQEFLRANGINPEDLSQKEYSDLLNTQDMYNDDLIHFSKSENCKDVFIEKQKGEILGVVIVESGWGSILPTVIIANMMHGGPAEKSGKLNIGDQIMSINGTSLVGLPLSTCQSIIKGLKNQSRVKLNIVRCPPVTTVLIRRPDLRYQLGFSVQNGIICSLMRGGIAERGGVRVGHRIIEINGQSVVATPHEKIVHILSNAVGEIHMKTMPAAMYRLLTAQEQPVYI
T3 sequence (P98170 whole entry): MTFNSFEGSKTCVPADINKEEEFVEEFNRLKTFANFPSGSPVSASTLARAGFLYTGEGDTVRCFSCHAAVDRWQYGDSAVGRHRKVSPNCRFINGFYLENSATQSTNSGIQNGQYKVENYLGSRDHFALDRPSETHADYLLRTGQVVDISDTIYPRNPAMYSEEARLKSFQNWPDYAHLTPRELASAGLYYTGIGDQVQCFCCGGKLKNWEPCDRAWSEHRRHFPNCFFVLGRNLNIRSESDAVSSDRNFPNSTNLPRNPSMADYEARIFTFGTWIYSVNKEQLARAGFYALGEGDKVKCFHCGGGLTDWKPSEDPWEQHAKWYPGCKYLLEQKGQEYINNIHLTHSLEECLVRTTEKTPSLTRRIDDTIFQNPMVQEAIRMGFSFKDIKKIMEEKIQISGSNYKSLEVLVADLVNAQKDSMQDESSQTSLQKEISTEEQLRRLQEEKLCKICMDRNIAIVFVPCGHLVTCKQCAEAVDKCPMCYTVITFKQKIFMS
Sequence of Induced myeloid leukemia cell differentiation protein Mcl-1 (Q07820 whole entry): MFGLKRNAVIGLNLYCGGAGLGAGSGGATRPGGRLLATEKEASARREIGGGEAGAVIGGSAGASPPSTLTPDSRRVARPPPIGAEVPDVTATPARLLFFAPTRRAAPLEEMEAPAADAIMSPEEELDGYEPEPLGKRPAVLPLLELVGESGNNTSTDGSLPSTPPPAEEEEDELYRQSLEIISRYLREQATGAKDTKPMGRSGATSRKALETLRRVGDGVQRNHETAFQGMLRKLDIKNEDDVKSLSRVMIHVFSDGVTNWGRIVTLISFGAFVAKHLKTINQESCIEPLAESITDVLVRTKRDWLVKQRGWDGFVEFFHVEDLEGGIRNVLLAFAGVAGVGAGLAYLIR
T4 sequence (P65502 whole entry): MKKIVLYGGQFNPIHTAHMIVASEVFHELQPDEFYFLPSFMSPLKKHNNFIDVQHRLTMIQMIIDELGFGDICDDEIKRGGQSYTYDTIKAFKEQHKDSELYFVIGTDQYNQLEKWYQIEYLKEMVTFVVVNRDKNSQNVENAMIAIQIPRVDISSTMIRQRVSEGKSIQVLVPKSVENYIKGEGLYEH
Sequence of Intestinal-type alkaline phosphatase (P09923 whole entry): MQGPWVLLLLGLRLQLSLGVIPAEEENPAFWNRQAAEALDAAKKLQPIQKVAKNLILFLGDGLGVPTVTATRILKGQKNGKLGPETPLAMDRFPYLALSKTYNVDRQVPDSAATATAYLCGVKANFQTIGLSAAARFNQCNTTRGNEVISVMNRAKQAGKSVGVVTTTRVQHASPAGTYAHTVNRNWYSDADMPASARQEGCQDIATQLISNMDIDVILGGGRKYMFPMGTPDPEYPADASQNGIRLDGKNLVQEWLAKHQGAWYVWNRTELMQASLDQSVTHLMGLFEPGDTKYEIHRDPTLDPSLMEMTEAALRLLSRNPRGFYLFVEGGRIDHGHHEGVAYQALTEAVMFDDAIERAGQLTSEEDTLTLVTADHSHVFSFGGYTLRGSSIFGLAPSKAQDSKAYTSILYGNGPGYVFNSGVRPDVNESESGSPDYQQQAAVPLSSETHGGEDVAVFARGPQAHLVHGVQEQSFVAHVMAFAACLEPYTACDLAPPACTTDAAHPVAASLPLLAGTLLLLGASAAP

O=C(CSc1nc[nH]n1)NCCc1ccccc1
EC50 [1]: > 100 µM (inactive)

Cc1c2c(=O)n(-c3nc4ccccc4s3)nc-2cc(O)n1Cc1ccccc1
IC50 [2]: > 50 µM (inactive) | AC50 [3]: 20.5 µM (active) | IC50 [4]: 17.4 µM (active) | IC50 [5]: 3.01 µM (active) | IC50 [6]: 4.32 µM (active)

COc1cc2cnc(Cl)nc2cc1OC
IC50 [7]: > 100 µM (not active) | IC50 [8]: > 100 µM (inactive)

Nc1ncnc(Sc2ccc(Cl)cc2)c1[N+](=O)[O-]
IC50 [7]: > 100 µM (not active) | IC50 [8]: > 100 µM (inactive)

O=C(CSc1ncnc2c1oc1ccccc12)NCc1ccc(F)cc1
EC50 [9]: 21.9 µM (inactive) | EC50 [10]: 83.1 µM (not active) | EC50 [11]: 20.5 µM (not active)

Cc1ccc(N2C(=O)/C(=C\Nc3ccccc3-c3nnc(S)nc3O)c3ccccc3C2=O)cc1C
CC50 (Vero): > 40 µM (active) | EC50 [12]: 23 µM (active) | EC50 [9]: 26.6 µM (inactive) | IC50 (Genome polyprotein): 31.5 µM (active) | EC50 [10]: > 79.4 µM (not active) | EC50 [13]: 0.262 µM (active) | EC50 (Streptococcus): 13.8 µM (active) | EC50 [14]: 16 µM (inconclusive) | IC50 [15]: 3.94 µM (active) | EC50 (Streptokinase A): > 150 µM (not active) | IC50 [16]: 11.2 µM (active) | IC50 (Aminopeptidase N): 39.2 µM (active) | EC50 [11]: 13.2 µM (not active) | AC50 (Escherichia coli): 33.6 µM (active) | EC50 [17]: 0.798 µM (active) | IC50 [6]: 3.26 µM (active) | EC50 [18]: > 180 µM (inactive)

Cc1ccc(/C=C/C(=O)N2CCN(c3ncccn3)CC2)o1
IC50 [19]: > 56.8 µM (inactive) | IC50 [2]: 4.77 µM (active) | IC50 [5]: 4.71 µM (active)

— ChEMBL document CHEMBL1201862, “PubChem BioAssay data set” (2004)
